This note sets out measurements from US20080176866A1, “NOVEL HETARYL-PHENYLENEDIAMINE-PYRIMIDINES AS PROTEIN KINASE INHIBITORS” (priority 2006, published 2008).

The target in experiment [1] is T1, human Aurora-C (Homo sapiens, UniProt Q9UQB9).
T1 construct: GST; made in house; host or cells: transiently transfected HEK293 cells
T1 sequence (Q9UQB9 1-309): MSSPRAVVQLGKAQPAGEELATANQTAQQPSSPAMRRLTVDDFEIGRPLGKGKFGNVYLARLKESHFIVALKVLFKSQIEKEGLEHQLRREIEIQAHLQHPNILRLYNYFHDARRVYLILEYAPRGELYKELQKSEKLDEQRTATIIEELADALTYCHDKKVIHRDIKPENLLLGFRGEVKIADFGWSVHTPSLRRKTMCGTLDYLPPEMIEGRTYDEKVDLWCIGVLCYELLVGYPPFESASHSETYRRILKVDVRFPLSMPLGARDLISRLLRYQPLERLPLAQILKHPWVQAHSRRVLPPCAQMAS
The experiment can be described thus: Aurora-C kinase assay (HTRF). The class given is biochemical. To be noted: GST-human Aurora-C, 10 μM ATP. Here is the method: The Aurora-C inhibitory activity of the substances of this invention was measured in the Aurora-C-HTRF assay (HTRF=Homogeneous Time Resolved Fluorescence) described in the following paragraphs.
Recombinant fusion protein of GST and human Aurora-C was expressed in transiently transfected HEK293 cells and purified by affinity chromatography on glutathione-Sepharose. The substrate used for the kinase reaction was the biotinylated peptide biotin-Ttds-FMRLRRLSTKYRT (C terminus in amide form) which can be purchased for example from JERINI Peptide Technologies (Berlin). Aurora-C was incubated in the presence of various concentrations of test substances in 5 μL of assay buffer [25 mM Hepes/NaOH pH 7.4, 0.5 mM MnCl2, 2.0 mM dithiothreitol, 0.1 mM sodium orthovanadate, 10 μM adenosine triphosphate (ATP), […] substrate, 0.01% (v/v) TritonX-100 (Sigma), 0.05% (w/v) bovine serum albumin (BSA), 1% (v/v) dimethyl sulphoxide] at 22° C. for 60 min. The concentration of Aurora-C was adapted to the particular activity of the enzyme and adjusted so that the assay operated in the linear range. Typical concentrations were in the region of 0.3 nM. The reaction was stopped by adding 5 μl of a solution of HTRF detection reagents (0.2 μM streptavidin-XLent and 1.4 nM anti-phospho-(Ser/Thr)-Akt substrate-Eu-cryptate (C is biointernational, France, product No. 61P02KAE), a Europium-cryptate-labelled phospho-(Ser/Thr)-Akt substrate antibody [product #9611B, Cell Signaling Technology, Danvers, Mass., USA]) in aqueous EDTA solution (40 mM EDTA, 400 mM KF, 0.05% (w/v) bovine serum albumin (BSA) in 25 mM HEPES/NaOH pH 7.0).
(§1) The resulting mixture was incubated at 22° C. for 1 h in order to allow formation of a complex of the biotinylated phosphorylated substrate and the detection reagents. The amount of phosphorylated substrate was then estimated by measuring the resonance energy transfer from the anti-phospho-(Ser/Thr)-Akt substrate-Eu cryptate to the streptavidin-XLent. For this purpose, the fluorescence emissions at 620 nm and 665 nm after excitation at 350 nm were measured in an HTRF measuring instrument, e.g. a Rubystar (BMG Labtechnologies, Offenburg, Germany) or a Viewlux (Perkin-Elmer). The ratio of the emissions at 665 nm and at 622 nm was taken as a measure of the amount of phosphorylated substrate. The data were normalized (enzymic reaction without inhibitor=0% inhibition, all other assay components but no enzyme=100% inhibition) and IC50 values were calculated with a 4-parameter fit using an inhouse software.
On the technique in general: Time-resolved FRET reads energy transfer from a long-lived donor to a nearby acceptor.

Experiment [2] addresses T2, CDK2/CycE (Homo sapiens, UniProt P24941).
T2 construct: GST; purchased ProQinase GmbH, Freiburg; host or cells: baculovirus-infected insect cells (Sf9)
The experiment can be described thus: CDK2/CycE kinase assay (HTRF). The class given is biochemical. To be noted: 10 μM ATP. As for the experimental part: The CDK2/CycE inhibitory activity of the substances of this invention was measured in the CDK2/CycE-HTRF assay (HTRF=Homogeneous Time Resolved Fluorescence) described in the following paragraphs.
Recombinant CDK2-GST and CycE-GST fusion proteins purified from baculovirus-infected insect cells (Sf9) were purchased from ProQinase GmbH, Freiburg. The substrate used for the kinase reaction was the biotinylated peptide biotin-Ttds-YISPLKSPYKISEG (C terminus in amide form) which can be purchased for example from JERINI Peptide Technologies (Berlin).
CDK2/CycE was incubated in the presence of various concentrations of test substances in 5 μL of assay buffer [50 mM Tris/HCl pH 8.0, 10 mM MgCl2, 1.0 mM dithiothreitol, 0.1 mM sodium orthovanadate, 10 μM adenosine triphosphate (ATP), 0.75 μM substrate, 0.01% (v/v) Nonidet-P40 (Sigma), 1% (v/v) dimethyl sulphoxide] at 22° C. for 60 min. The concentration of CDK2/CycE was adapted to the particular activity of the enzyme and adjusted so that the assay operated in the linear range. Typical concentrations were in the region of 1 ng/ml. The reaction was stopped by adding 5 μl of a solution of HTRF detection reagents (0.2 μM streptavidin-XLent and 3.4 nM phospho-(Ser) CDKs substrate antibody [product #2324B, Cell Signaling Technology, Danvers, Mass., USA] and 4 nM Prot-A-EuK [protein A labelled with Europium cryptate from C is biointernational, France, product No. 61 PRAKLB]) in aqueous EDTA solution (100 mM EDTA, 800 mM KF, 0.2% (w/v) bovine serum albumin (BSA) in 100 mM HEPES/NaOH pH 7.0).
as §1, with “Prot-A-EuK” for “anti-phospho-(Ser/Thr)-Akt substrate-Eu cryptate”

`C[C@@H](O)[C@@H](C)Oc1nc(Nc2ccc(Nc3nccc(NCCN(C)C)n3)cc2)ncc1Br` [Example 18]: the IC50 is 0.075 µM in experiment [1] and 0.0059 µM in experiment [2].
`C[C@@H](O)[C@@H](C)Oc1nc(Nc2ccc(Nc3nccc(OCCO)n3)cc2)ncc1Br` [Example 8, (2R,3R)-3-(5-Bromo-2-{4-[4-(2-hydroxyethoxy)pyrimidin-2-ylamino]-phenylamino}pyrimidin-4-yloxy)butan-2-ol]: the values for the IC50 in experiment [1] and in experiment [2] were 0.2 µM and 0.0028 µM, respectively.
On to `CC(=O)NCCNc1nc(Nc2cccc(Nc3ncc(Br)c(NCCNC(C)=O)n3)c2)ncc1Br` [Example 30], for which the values for the IC50 in experiment [1] and in experiment [2] were 0.053 µM and 5.8 µM, respectively.
For `C[C@@H](O)[C@@H](C)Nc1nc(Nc2ccc(Oc3cccnc3)cc2)ncc1Br` [Example 33], in that order: 0.38 µM and 0.0066 µM.
For `C[C@@H](O)[C@@H](C)Oc1nc(Nc2ccc(Nc3ncc(Br)cn3)cc2)ncc1Br` [Example 24], in that order: 0.13 µM and 0.0062 µM.
Turning to `C[C@@H](O)[C@@H](C)Oc1nc(Nc2ccc(Nc3ncccn3)cc2)ncc1Br` [Example 15], the IC50 in experiment [1] worked out at 0.14 µM; in experiment [2] it was 0.0029 µM.
In the case of `C[C@@H](O)[C@@H](C)Nc1nc(Nc2ccc(Oc3ncccn3)cc2)ncc1Br` [Example 34], the half-inhibitory concentration (IC50) in experiment [1] came out at 0.49 µM; in experiment [2] it was 0.0091 µM.
For `C[C@@H](O)[C@@H](C)Sc1nc(Nc2ccc(Nc3ncc(Cl)c(NCCO)n3)cc2)ncc1Br` [Example 44], in that order: 1 µM and 0.37 µM.
Take `C[C@@H](O)[C@@H](C)Oc1nc(Nc2cccc(Nc3ncccn3)c2)ncc1Br` [Example 25]: the IC50 in experiment [1] is 0.34 µM; in experiment [2], 0.002 µM.
For `C[C@@H](O)[C@@H](C)Oc1nc(Nc2ccc(Nc3nccc(N(C)C)n3)cc2)ncc1Br` [Example 17], in that order: 0.1 µM and 0.0044 µM.
For `Cc1cnc(Nc2ccc(Nc3ncc(Br)c(O[C@H](C)[C@@H](C)O)n3)cc2)nc1NCCO` [Example 19], in that order: 0.091 µM and 0.0022 µM.
For `CSc1nc(Nc2ccc(Nc3ccccn3)cc2)ncc1Br` [Example 29], in that order: 8.1 µM and 0.26 µM.
Regarding `C[C@@H](O)[C@@H](C)Oc1nc(Nc2ccc(Nc3ncc(Cl)c(NCCO)n3)cc2)ncc1Br` [Example 21], the IC50 was found to be 0.18 µM in experiment [1] and 0.0022 µM in experiment [2].
For `C[C@@H](O)[C@@H](C)Oc1nc(Nc2ccc(Nc3nccc(N)n3)cc2)ncc1Br` [Example 16], in that order: 0.042 µM and 0.002 µM.
For `COc1ccnc(Nc2ccc(Nc3ncc(Br)c(O[C@H](C)[C@@H](C)O)n3)cc2)n1` [Example 22], in that order: 0.27 µM and 0.0048 µM.
For `C[C@@H](O)[C@@H](C)Nc1nc(Nc2ccc(Sc3nncn3C)cc2)ncc1Br` [Example 39], in that order: 0.35 µM and 0.0013 µM.
As to `C[C@@H](O)[C@@H](C)Oc1nc(Nc2cccc(Nc3nccc(OCCO)n3)c2)ncc1Br` [Example 27], the IC50 in experiment [1] turned out to be 0.44 µM; in experiment [2], 0.0024 µM.

As usually defined, the IC50 is the concentration at which inhibition is half-maximal. A lower IC50 goes with higher potency.
